Where “and” joins values, the source holds several entries; their conditions need not be identical. Equal entries are not always repeated.
Legend:
souris mâles = assay: Intergroup aggressiveness test (number of fights after removal of the partition); assay type: in vivo; details: mouse; dose not given
Excerpt: Des essais comparatifs ont été entrepris pour mettre en évidence quels sont les effets chez l'animal qui permettent de distinguer les produits selon l'invention de leurs homologues fluorés connus. Parmi ces essais, on a résumé ceux concernant les propriétés antiagressives. Plus précisément, on a évalué la diminution de l'agressivité intergroupes selon la technique suivante : a.près avoir séjourné pendant 3 semaines de part et d'autre d'une cloison opaque séparant leur cage par le milieu, des groupes de trois souris mâles de 20 g chacune environ reçoivent, par voie intrapéritonéale, les produits à tester en solution dans de l'eau distillée, les animaux témoins ne recevant que de l'eau distillée par voie intrapéritonéale. Une demi-heure plus tard, les deux groupes d'une même cage sont réunis par retrait de la cloison opaque et on note le nombre de combats qui surviennent en 10 min. On a utilisé trois cages pour chaque produit à tester et six cages pour le lot témoin ne recevant pas les produits à tester.
Les résultats du tableau I ci-après donnent la diminution de l'agressivité intergroupes par rapport au lot témoin, tous les produits à tester étant administrés à la dose de 8 mg/kg par voie intrapéritonéale. […]

souris [1] = assay: Toxicity: maximal non-lethal dose DL-0, intraperitoneal; assay type: in vivo; details: mouse, i.p.
Method: La dose maximale non mortelle, DL-0, est supérieure à 128 mg/kg et inférieure à 256 mg/kg, chez la souris, par voie I.P. 2°) - Action sur le SNC
(§1) Le CRL 40827, en solution dans de l'eau distillée, a été administré par voie intrapéritonéale sous un volume de 20 ml/kg chez la souris mâle et un volume de 5 ml/kg chez le rat mâle. 1°) - Toxicité
La dose maximale non mortelle, DL-0, est supérieure à 64 mg/kg et inférieure à 128 mg/kg chez la souris mâle.
Le CRL 40854, en solution dans de l'eau distillée, a été administré par voie intrapéritonéale sous un volume de 20 ml/kg chez la souris màle et de 5 ml/kg chez le rat màle.
La dose maximale non mortelle DL-0 est supérieure à 128 mg/kg et inférieure à 256 mg/kg chez la souris.

rat = assay: Interaction with apomorphine, rat; assay type: in vivo; details: i.p. 30 min before apomorphine 0,5 mg/kg s.c.
Method: as §1
Le CRL 40 827 est administré à des lots de 6 rats 30 min avant l'injection sous-cutanée de 0,5 mg/kg d'apomorphine.
(§2) En procédant selon les modalités opératoires données ci-dessus pour le CRL 40827, on observe ce qui suit.

rats = assay: Interaction with amphetamine (stereotypies); assay type: in vivo, rat; details: rat
Method: L'amphétamine (2 mg/kg) est injectée par voie intrapéritonéale à des lots de 6 rats, 30 min après l'administration de CRL 40827. […] Interaction avec la réserpine
as §2

souris [2] = assay: Interaction with reserpine (hypothermia, ptosis); assay type: in vivo; details: mouse
Method: Quatre heures après l'injection intrapéritonéale de 2,5 mg/kg de réserpine, des lots de 6 souris reçoivent le CRL 40827.
as §2

souris [3] = assay: Interaction with oxotremorine; assay type: in vivo; details: mouse
Method: Le CRL 40827 est administré à des lots de 6 souris 30 min avant l'injection intrapéritonéale de 0,5 mg/kg d'oxotrémo- rine. On observe que, dès la dose de 0,5 mg/kg, le CRL 40827 antagonise l'action hypothermisante de l'oxotrémorine; cet effet est très net à 32 mg/kg.
as §2

souris [4] = assay: Four-plate test, traction and electroshock; assay type: in vivo; details: mouse, 30 min after dosing
Method: Le test est pratiqué sur des lots de 10 souris, 30 min après l'administration de CRL 40827.
as §2

souris [5] = assay: Spontaneous motility (actimeter); assay type: in vivo; details: mouse, recorded 30 min, 30 min after dosing
Method: Une demi-heure après avoir reçu le CRL 40827, les souris (6 par dose, 12 témoins) sont placées en actimètre où leur motilité est enregistrée pendant 30 min.
as §2

souris [6] = assay: Motility reduced by habituation to the enclosure; assay type: in vivo; details: mouse; high dose 34 mg/kg
Method: Après 18 h de séjour dans les actimètres, les souris (6 par dose, 12 témoins) reçoivent le CRL 40827. Elles sont aussitôt replacées dans leurs enceintes respectives et, 30 min plus tard, on enregistre leur motilité pendant 30 min.
as §2

souris [7] = assay: Motility reduced by hypoxic aggression (acute hypobaric anoxia); assay type: in vivo; details: mouse
Method: Une demi-heure après avoir reçu le CRL 40827, les souris (10 par dose, 20 témoins) sont soumises à une anoxie hypobare aiguë (dépression de 8 x 10^4 Pa en 90 s, détente de 45 s), puis elles sont placées en actimètre où leur motilité est enregistrée pendant 10 min.
as §2

souris [8] = assay: Asphyxic anoxia (gallamine triethiodide); assay type: in vivo; details: mouse; highest dose 34 mg/kg, 30 min before gallamine triethiodide i.p.
Method: Des lots de 10 souris reçoivent le CRL 40827 30 min avant l'administration intrapéritonéale d: 34 mg/kg de triiodoéthy- late de gallamine. A la plus forte dose (34 mg/kg),le CRL 40827 empêche l'apparition des convulsions et de la mort chez 40% des animaux.
as §2

chien anesthésié = assay: Cardiovascular and respiratory action, anaesthetised dog; assay type: in vivo
[9] = system: rat éveillé génétiquement hypertendu; assay: Cardiovascular action, awake genetically hypertensive rat; assay type: in vivo
[10] = system: chien anesthésié au Nembutal; assay: Biliary secretion, dog anaesthetised with Nembutal; assay type: in vivo; details: normal 1,5 ml
Method: (§3) Chez le chien anesthésié au Nembutal, le débit biliaire normal recueilli en 30 min est de 1,5 ml; le débit biliaire augmente après injection intraduodénale de CRL 40827 et passe à 1,75 ml pour 2,5 mg/kg de CRL 40827, à 2,25 ml pour 5 mg/kg et à 2,5 ml pour 10 mg/kg. Chez le rat anesthésié au Nembutal, le débit biliaire augmente 1 à 3 h après injection I.V. de CRL 40827 aux doses de 5 mg/kg et 25 mg/kg.

[11] = system: rat anesthésié au Nembutal; assay: Biliary secretion, rat anaesthetised with Nembutal; assay type: in vivo; details: 1 to 3 h after I.V. injection of 5 mg/kg and 25 mg/kg
Method: as §3

cobaye = assay: Local anaesthetic effect, intradermal injection, pin-prick test; assay type: in vivo; details: guinea pig, intradermal 0,2 ml, concentrations 0,5 and 1%
Method: L'effet anesthésique a été étudié chez le cobaye après injection du CRL 40827 par voie intradermique sous un volume de 0,2 ml aux concentrations de 0,1, 0,5 et 1% (3 cobayes par dose). Chaque animal reçoit le sérum physiologique, la procaine et le CRL 40827 dans des zones délimitées.
Le test qui consiste en une série de six piqûres de la zone injectée est réalisé 5, 10, 15, 20, 25 et 30 min après l'injection.

homme = assay: Clinical use as sedative and antidepressant agents; assay type: in vivo; details: clinic

CC(C)(C)NCC(O)c1ccccc1F (stereo not drawn) [CRL 40827, chlorhydratede 1-(2-fluorophényl)-2-tertiobutylamino-1-éthanol]
agressivité intergroupes / effet antiagressif (souris mâles): diminue l'agressivité intergroupes
dose maximale non mortelle, DL-0 (souris [1]): > 64 mg/kg and < 128 mg/kg
stéréotypies induites par l'apomorphine (rat): laisse inchangées
index de stéréotypies (amphétamine) (rats; 4 mg/kg): diminution isolée
stéréotypies amphétaminiques (rats; amphetamine 2 mg/kg i.p. 30 min after the compound): ne modifie pas
ptôsis réserpinique (souris [2]): sans modifier
hypothermie réserpinique (souris [2]; from 0,5 mg/kg, 4 h after reserpine 2,5 mg/kg i.p.): combat nettement
signes de stimulation cholinergique périphérique (oxotrémorine) (souris [3]): laisse inchangés
tremblements provoqués par l'oxotrémorine (souris [3]): ne modifie pas
action hypothermisante de l'oxotrémorine (antagonisme) (souris [3]; 32 mg/kg): très net
action hypothermisante de l'oxotrémorine (souris [3]; from 0,5 mg/kg, 30 min before oxotremorine 0,5 mg/kg i.p.): antagonise
effets convulsivants de l'électrochoc (souris [4]): à forte dose, s'oppose aux effets convulsivants
incapacité motrice (traction) (souris [4]): ne provoque pas d'incapacité motrice majeure
nombre de passages punis (test des quatre plaques) (souris [4]): n'entraîne pas d'augmentation
activité motrice spontanée (souris [5]): ne modifie pratiquement pas
activité motrice (souris habituées à l'enceinte) (souris [6]): semble provoquer une reprise modérée
récupération motrice après anoxie hypobare (souris [7]): n'entraîne pas d'amélioration
animaux chez lesquels l'apparition des convulsions et de la mort est empêchée (souris [8]): 40%
minimal effective dose (chien anesthésié; Canis lupus familiaris, dog, read-out: dose from which the effets hypertenseurs de la noradrénaline are diminished): 1 mg/kg
pression artérielle et fréquence cardiaque (chien anesthésié; anaesthetised dog): hypotenseur et tachycardisant
dose of maximal effect on the effets hypertenseurs de la noradrénaline (chien anesthésié; dog): ~10 mg/kg
débit cardiaque (chien anesthésié; in vivo): reste égal
débits sanguins locaux (chien anesthésié; in vivo): n'augmentent pas
respiration (chien anesthésié; in vivo): stimule la respiration
résistances vasculaires des territoires explorés (vertébral, fémoral et rénal) et résistance périphérique totale (chien anesthésié; in vivo): diminue
travail du ventricule gauche et diastole (chien anesthésié; in vivo): diminue le travail du ventricule gauche et raccourcit la diastole
pression artérielle et fréquence cardiaque [9]: hypotenseur et tachycardisant
débit biliaire recueilli en 30 min ([10]; dog, 5 mg/kg intraduodenal): 2,25 ml
débit biliaire recueilli en 30 min ([10]; dog, 10 mg/kg intraduodenal): 2,5 ml
débit biliaire recueilli en 30 min ([10]; dog, 2,5 mg/kg intraduodenal): 1,75 ml
débit biliaire [11]: augmente
effet anesthésique local (cobaye): présente un effet anesthésique local
résultats cliniques dans le domaine psychotrope en tant qu'agents sédatifs et antidépresseurs (homme): bons résultats
